Experimental data as given in PMC5573760 (Cancer Chemotherapy and Pharmacology, 2017).
“Also recorded” adds a separate entry of the source.

Experiments:
[1] = assay type: in vivo, human
Procedure: All subjects gave written informed consent; the study was conducted at PRA Health Sciences (Zuidlaren, The Netherlands) in accordance with the Declaration of Helsinki and was approved by an accredited institutional ethics committee (Medisch Ethische Toetsings Commissie, Assen, The Netherlands).
Subjects remained fasting until 2-h after the end of the infusion. Volunteers stayed in-house until 14 days after the application and subsequently urine and feces were collected for 24-h on Day 16, 20, 27 and 34 if necessary, cf. below.
Urine was collected pre-dose, at 0–12-h and 12–24 h after the start of the infusion and thereafter over 24-h intervals on Day 2 to Day 14 as well as on Day 16, 20, 27 and 34 (±1 day). Cumulative 24-h fecal samples were collected from Day 1 (day of infusion) to Day 14 and as well as on Day 16, 20, 27 and 34 (±1 day). […] The excreted radioactivity between ambulant visits during the prolongation phase of the clinical study was calculated using interpolation to get a more realistic total excretion value of all subjects (see "Pharmacokinetic analysis").
After pooling and homogenization of urine and feces samples per time interval, aliquots were stored at −20 °C for total radioactivity determination and at −70°C for metabolic profiling (including blood/plasma samples). For determination of total radioactivity, samples were analyzed with a Perkin Elmer Tri-Carb™ 3100 TR liquid scintillation analyzer (Perkin Elmer, Waltham, MA, USA) with quenching correction. For metabolite profiling, plasma samples were treated with a mixture of acetonitrile (ACN) +0.2% acetic acid, after shaking and centrifugation, the supernatant was concentrated. Urine and feces samples were treated with solid-phase extraction (Waters HLB 30 mg, 1 mL, Waters, Milford, MA, USA) and liquid–liquid extraction (ACN + 0.2% trifluoroacetic acid/water, 80:20 volume/volume), respectively. Subsequently samples from plasma, urine and feces were analyzed by HPLC-LSC on Synergi Polar 4 µm 150 × 2 mm (Phenomenex, Aschaffenburg, Germany) with off-line radioactivity detection by Microbeta^2™ Plus liquid scintillation counter with Ultima Flo™ AP scintillation fluid (Packard Instrument BV, Groningen, The Netherlands).
For blood/plasma ratio determination, total radioactivity in urine and feces well as data from HPLC analysis data from radioactivity measurement by liquid scintillation counting (LSC) were considered. The amount of radioactivity recovered in the excreta (A E) was related to the administered radioactive dose to establish the radioactive balance. Arithmetic means and coefficients of variation (CV) were calculated for these percentages. […] Cumulative excretion was calculated as sum of the collection intervals. The elimination of the total radioactivity in urine and feces for time-points beyond day 14 was performed by log-linear extrapolation between analyzed time-points. Amounts of radioactivity excreted in urine and feces between two ambulant visits were calculated per interpolated day by linear interpolation of log-transformed excretion data separately per matrix (lnA E(interpolated day) = Δdays × [lnA E(Visit i + 1) − lnA E(Visit i)]/[day (Visit i + 1) − day (Visit i)] + lnA E(Visit i), with A E given as amount of radioactivity excreted in matrix per day and Δdays being the difference between the calculated day and the last available visit with A E > 0). In case no feces sample was provided on an ambulant visit, this visit was neglected for interpolation.

[2] = Safety and tolerability assessment in healthy male volunteers; assay type: in vivo, human
Excerpt: Physical examination, blood pressure, pulse rate, body temperature and body weight, laboratory parameters and 12-lead electrocardiogram (ECG), as well as adverse events using the common terminology criteria for adverse events (CTCAE) Version 4.03, were monitored throughout the study for safety assessment.

[3] = test system: breast Cancer Resistance Protein (BCRP); set-up: method as in Bayer AG, data on file; settings: in vitro; ref Bayer AG, data on file; cited from earlier work
PI3K-δ = settings: cited from earlier work
[4] = whole blood, range of 6 subjects

## COc1c(OCCCN2CCOCC2)ccc2c1N=C(NC(=O)c1cnc(N)nc1)N1CCN=C21 [Copanlisib, copanlisib]
[1]; in vivo
  Total radioactivity AUC (0–t last) in blood, geometric mean (% CV): 558 (28.8%) ng-Eq·h/mL
  Total radioactivity AUC (0–t last) in blood, range: 347–756 ng-Eq·h/mL
  Total radioactivity AUC (0–t last) in plasma, geometric mean (% CV): 324 (54.1%) ng-Eq·h/mL
  Total radioactivity AUC (0–t last) in plasma, range: 150–601 ng-Eq·h/mL
[1]; plasma
  Total radioactivity t last in plasma, median: 60 h
  Total radioactivity t max in plasma, median: 60 min
[1]; plasma extraction, no indication of covalent adduct formation
  Recovery of radioactivity extractable from plasma: > 90%
[1]; plasma, 12 mg copanlisib (2.76 MBq 14C) 1-h infusion
  Total radioactivity C max in plasma, geometric mean (% CV): 45.6 (26.0%) ng-Eq/mL
[1]; plasma, range of 6 subjects
  Total radioactivity C max in plasma, range: 32.1–57.6 ng-Eq/mL
  Total radioactivity t last in plasma, range: 24 to 96 h
  Total radioactivity t max in plasma, range: 30 to 60 min
[1]; whole blood
  Total radioactivity C max in blood, geometric mean (% CV): 83.5 (26.3%) ng-Eq/mL
  Total radioactivity t last in blood, median: 72 h
  Total radioactivity t max in blood, median: 60 min
[1]; [4]
  Total radioactivity C max in blood, range: 59.2–114 ng-Eq/mL
  Total radioactivity t last in blood, range: 36 to 72 h
  Total radioactivity t max in blood, range: 30 to 60 min
[2]; 12 mg, 6 healthy subjects
  Adverse events related to copanlisib: Three mild-to-moderate gastrointestinal adverse events
[2]; abdominal pain, diarrhea and nausea
  Subjects with TEAEs assessed as related to the study drug: 2
[2]; abdominal pain, nausea, flatulence, frequent bowel movements, diarrhea
  Total number of gastrointestinal TEAEs: 5
[2]; all 6 healthy volunteers, all above 2/3 of the lower limit for normal values
  Neutrophils and leukocytes: transient decrease
[2]; human, in vivo
  Other laboratory values, ECG or vital signs: No clinically relevant changes
[2]; single i.v. dose of 12 mg copanlisib, 6 healthy subjects
  Tolerability: well tolerated
[2]; single i.v. dose of 12 mg, 6 healthy subjects
  Deaths or serious adverse events: No death or SAEs; also recorded: without any serious adverse event
[2]; single i.v. dose of 12 mg, 6 volunteers
  Volunteers with at least one treatment emergent adverse event (TEAE): Three out of the 6
[3]
  Substrate of efflux transporter BCRP: substrate
PI3K-δ
  PI3K-δ inhibitory activity: predominant PI3K-α and PI3K-δ inhibitory activity
